Experimental data taken from ChEMBL document CHEMBL4483862, “Open-source discovery of chemical leads for next-generation chemoprotective antimalarials” (2018).

Test system: Plasmodium berghei
Test: Luciferase/luciferin-expressing antifolate-resistant parasites were used to infect a culture of HepG2 cells that were pre-incubated with compounds. Infected hepatocytes emit light due to the luciferase reaction. Assay results are presented as the percent inhibition of light emission compared to control. […]
Format: functional
Details: sporozoite; for IC90: read-out: LUCIFERASE INFECTION ASSAY - IC90

| SMILES | IC90 [µM] | other results |
| --- | --- | --- |
| COc1ccc(C(N)=O)c(OCC(=O)c2cc(C)n(Cc3ccccc3)c2C)c1 | 9.51 | IC50 (HEPG2TOX_HILL_SLOPE 1.79, HEPG2TOX_R_SQUARED 0.962, PBLUC_HILL_SLOPE 4.42, PBLUC_R_SQUARED 0.333, read-out: LUCIFERASE INFECTION ASSAY - IC50): 5.78 µM |
| Cc1ccc(-c2nc3cc(Br)cnc3nc2-c2ccc(C)cc2)cc1 | 6.85 | IC50 (HEPG2TOX_HILL_SLOPE 1.79, HEPG2TOX_R_SQUARED 0.907, PBLUC_HILL_SLOPE 4.08, PBLUC_R_SQUARED 0.409, read-out: LUCIFERASE INFECTION ASSAY - IC50): 4 µM |
| NC(=S)N/N=C/c1ncc(C(F)(F)F)cc1Cl | 4.07 | IC50 (HEPG2TOX_HILL_SLOPE 1.78, HEPG2TOX_R_SQUARED 0.942, PBLUC_HILL_SLOPE 40.1, PBLUC_R_SQUARED 0.426, read-out: LUCIFERASE INFECTION ASSAY - IC50): 3.85 µM |
| Cc1ccnc(NC(c2ccccn2)c2ccc3ccc(C)nc3c2O)c1 (configuration not stated) | > 9.26 | IC50 (HEPG2TOX_HILL_SLOPE 1.81, HEPG2TOX_R_SQUARED 0.956, PBLUC_HILL_SLOPE 14.5, PBLUC_R_SQUARED 0.453, read-out: LUCIFERASE INFECTION ASSAY - IC50): 8.04 µM |
| CC(C)Cc1ccc(C(C)NC(=O)c2ccc(CNC(N)=O)cc2)cc1 (configuration not stated) | > 10 | IC50 (HEPG2TOX_HILL_SLOPE 1.82, HEPG2TOX_R_SQUARED 0.295, read-out: LUCIFERASE INFECTION ASSAY - IC50): > 10 µM |
| COc1ccc(C(=O)C(/C=N/N)=N/Nc2ccc(C(F)(F)F)cc2)cc1 | 8.8 | IC50 (HEPG2TOX_HILL_SLOPE 1.78, HEPG2TOX_R_SQUARED 0.947, PBLUC_HILL_SLOPE 3.28, PBLUC_R_SQUARED 0.359, read-out: LUCIFERASE INFECTION ASSAY - IC50): 4.5 µM |
| CN1C(=O)N(CCCc2ccncc2)C(=O)C12CCN(Cc1ccc(N3CCCC3)cc1)CC2 | 2.98 | IC50 (HEPG2TOX_HILL_SLOPE 1.82, HEPG2TOX_R_SQUARED 0.908, PBLUC_HILL_SLOPE 12.5, PBLUC_R_SQUARED 0.321, read-out: LUCIFERASE INFECTION ASSAY - IC50): 2.5 µM |
| CC1S/C(=C\c2nc3ccccc3s2)NC1=O (configuration not stated) | > 10 | IC50 (HEPG2TOX_HILL_SLOPE 1.83, HEPG2TOX_R_SQUARED 0.983, PBLUC_HILL_SLOPE 1.76, PBLUC_R_SQUARED 0.572, read-out: LUCIFERASE INFECTION ASSAY - IC50): 3.43 µM |
| CC(=O)c1cccc(-c2cnc3ccc(-c4cccnc4)nn23)c1 | 4.84 | IC50 (HEPG2TOX_HILL_SLOPE 1.81, HEPG2TOX_R_SQUARED 0.991, PBLUC_HILL_SLOPE 1.06, PBLUC_R_SQUARED 0.743, read-out: LUCIFERASE INFECTION ASSAY - IC50): 0.606 µM |
| Cn1c(=O)[nH]c(=O)c2ccc(C(=O)/N=c3/sccn3Cc3ccc(Cl)cc3Cl)nc21 | 5.16 | IC50 (HEPG2TOX_HILL_SLOPE 1.78, HEPG2TOX_R_SQUARED 0.947, PBLUC_HILL_SLOPE 2.11, PBLUC_R_SQUARED 0.878, read-out: LUCIFERASE INFECTION ASSAY - IC50): 1.82 µM |
| O=C(O)C(CCO)Sc1nnc(Nc2ccc(Oc3ccccc3)cc2)s1 (configuration not stated) | > 10 | IC50 (HEPG2TOX_HILL_SLOPE 1.82, HEPG2TOX_R_SQUARED 0.816, PBLUC_HILL_SLOPE 10.1, PBLUC_R_SQUARED 0.331, read-out: LUCIFERASE INFECTION ASSAY - IC50): 9.1 µM |
| O=C(Nc1cc(Cl)cc(Cl)c1)c1cc(Br)ccc1O | 1.35 | IC50 (HEPG2TOX_HILL_SLOPE 1.83, HEPG2TOX_R_SQUARED 0.974, PBLUC_HILL_SLOPE 1.75, PBLUC_R_SQUARED 0.827, read-out: LUCIFERASE INFECTION ASSAY - IC50): 0.385 µM |
| CCCCNC(=O)c1c(NC(=O)C(C)Oc2ccccc2)nc2ccccn12 (configuration not stated) | > 8.67 | IC50 (HEPG2TOX_HILL_SLOPE 1.79, HEPG2TOX_R_SQUARED 0.135, PBLUC_HILL_SLOPE 4.23, PBLUC_R_SQUARED 0.241, read-out: LUCIFERASE INFECTION ASSAY - IC50): 6.54 µM |
| COc1cccc(/C=c2\s/c(=C\C(=O)C(C)(C)C)n(C)c2=O)c1OC(C)C | > 10 | IC50 (HEPG2TOX_HILL_SLOPE 1.82, HEPG2TOX_R_SQUARED 0.577, PBLUC_HILL_SLOPE 1.88, PBLUC_R_SQUARED 0.501, read-out: LUCIFERASE INFECTION ASSAY - IC50): 8.5 µM |
| O=C(C1CCC1)N1CCN(Cc2ccc(-c3ccc(Cl)cc3)s2)CC1 | > 10 | IC50 (HEPG2TOX_HILL_SLOPE 1.83, HEPG2TOX_R_SQUARED 0.819, PBLUC_HILL_SLOPE 1.76, PBLUC_R_SQUARED 0.701, read-out: LUCIFERASE INFECTION ASSAY - IC50): 4.2 µM |
| Cc1nn(C)c(Cl)c1/C=N/Nc1ccc([N+](=O)[O-])cc1S(=O)(=O)Nc1ccc(Cl)cc1 | > 10 | IC50 (HEPG2TOX_HILL_SLOPE 1.82, HEPG2TOX_R_SQUARED 0.852, PBLUC_HILL_SLOPE 13.6, PBLUC_R_SQUARED 0.455, read-out: LUCIFERASE INFECTION ASSAY - IC50): 9.47 µM |

| SMILES | IC90 [µM] | other results |
| --- | --- | --- |
| CN(C)c1ccc(-c2cnc3ccc(NCc4ccc5c(c4)OCO5)nn23)cc1 | 3.57 | IC50 (HEPG2TOX_HILL_SLOPE 1.81, HEPG2TOX_R_SQUARED 0.969, PBLUC_HILL_SLOPE 2.01, PBLUC_R_SQUARED 0.65, read-out: LUCIFERASE INFECTION ASSAY - IC50): 1.2 µM |
| CC1(C(=O)NC(=S)NNc2nc3ccccc3[nH]2)CC1(Cl)Cl (configuration not stated) | > 10 | IC50 (HEPG2TOX_HILL_SLOPE 1.8, HEPG2TOX_R_SQUARED 0.951, read-out: LUCIFERASE INFECTION ASSAY - IC50): > 10 µM |
| COc1cc(OC)cc(C(=O)Nc2nc3ccc(C)cn3c2C(=O)NC2CCCCC2)c1 | 1.03 | IC50 (HEPG2TOX_HILL_SLOPE 1.81, HEPG2TOX_R_SQUARED 0.745, PBLUC_HILL_SLOPE 12.8, PBLUC_R_SQUARED 0.53, read-out: LUCIFERASE INFECTION ASSAY - IC50): 0.872 µM |
| CCCCCn1c(SCC(=O)Nc2ccc(C(C)C)cc2)n[nH]c1=O | 3.43 | IC50 (HEPG2TOX_HILL_SLOPE 1.82, HEPG2TOX_R_SQUARED 0.814, PBLUC_HILL_SLOPE 12.7, PBLUC_R_SQUARED 0.412, read-out: LUCIFERASE INFECTION ASSAY - IC50): 2.89 µM |
| CC(OC(=O)c1cc([N+](=O)[O-])ccc1N(C)C)C(=O)Nc1ccc(Cl)cn1 (configuration not stated) | 1.83 | IC50 (HEPG2TOX_HILL_SLOPE 1.79, HEPG2TOX_R_SQUARED 0.979, PBLUC_HILL_SLOPE 1.96, PBLUC_R_SQUARED 0.845, read-out: LUCIFERASE INFECTION ASSAY - IC50): 0.596 µM |
| CCOc1cccc2cc(C(C)Nc3ncnc4n[nH]cc34)oc12 (configuration not stated) | 6.49 | IC50 (HEPG2TOX_HILL_SLOPE 1.82, HEPG2TOX_R_SQUARED 0.969, PBLUC_HILL_SLOPE 2.94, PBLUC_R_SQUARED 0.376, read-out: LUCIFERASE INFECTION ASSAY - IC50): 3.07 µM |
| CCOC(=O)c1c(NC(=O)CSc2ncnc3scc(-c4ccc(OC)cc4)c23)sc2c1CCCC2 | > 10 | IC50 (HEPG2TOX_HILL_SLOPE 1.83, HEPG2TOX_R_SQUARED 0.223, read-out: LUCIFERASE INFECTION ASSAY - IC50): > 10 µM |
| CN1C(=O)N(CCCc2ccncc2)C(=O)C12CCN(Cc1cc3ccccc3[nH]1)CC2 | > 7.65 | IC50 (HEPG2TOX_HILL_SLOPE 1.79, HEPG2TOX_R_SQUARED 0.954, PBLUC_HILL_SLOPE 8.39, PBLUC_R_SQUARED 0.134, read-out: LUCIFERASE INFECTION ASSAY - IC50): 6.78 µM |
| N#Cc1ccccc1Sc1ccccc1C(=O)OCc1cc(=O)oc2cc(Br)ccc12 | > 10 | IC50 (HEPG2TOX_HILL_SLOPE 1.78, HEPG2TOX_R_SQUARED 0.958, PBLUC_HILL_SLOPE 3.89, PBLUC_R_SQUARED 0.0824, read-out: LUCIFERASE INFECTION ASSAY - IC50): 9.13 µM |
| NC(=O)c1c(NC(=O)N2CCC(Cc3ccccc3)CC2)sc2c1CCC2 | > 8.6 | IC50 (HEPG2TOX_HILL_SLOPE 1.79, HEPG2TOX_R_SQUARED 0.702, PBLUC_HILL_SLOPE 1.44, PBLUC_R_SQUARED 0.101, read-out: LUCIFERASE INFECTION ASSAY - IC50): 3.57 µM |
| O=C(Nc1nc2ccccc2n1C1CCCCC1)c1ccoc1 | 4.66 | IC50 (HEPG2TOX_HILL_SLOPE 1.84, HEPG2TOX_R_SQUARED 0.834, PBLUC_HILL_SLOPE 10.1, PBLUC_R_SQUARED 0.2, read-out: LUCIFERASE INFECTION ASSAY - IC50): 3.75 µM |
| COc1ccc(-c2cn(CC(=O)c3ccccc3)c3[n+]2-c2ccccc2CC3)cc1 | > 10 | IC50 (HEPG2TOX_HILL_SLOPE 1.82, HEPG2TOX_R_SQUARED 0.932, PBLUC_HILL_SLOPE 2.71, PBLUC_R_SQUARED 0.363, read-out: LUCIFERASE INFECTION ASSAY - IC50): 4.75 µM |
| COc1ccc(-c2nonc2NC(=O)c2oc3cc(C)ccc3c2C)cc1OC | 3.11 | IC50 (HEPG2TOX_HILL_SLOPE 1.8, HEPG2TOX_R_SQUARED 0.881, PBLUC_HILL_SLOPE 18.6, PBLUC_R_SQUARED 0.206, read-out: LUCIFERASE INFECTION ASSAY - IC50): 2.77 µM |
| CCOC(=O)c1ccc(NC2CCCCC2)c(/N=C/c2cc(Cl)cc(Cl)c2O)c1 | 2.39 | IC50 (HEPG2TOX_HILL_SLOPE 1.82, HEPG2TOX_R_SQUARED 0.941, PBLUC_HILL_SLOPE 4.39, PBLUC_R_SQUARED 0.446, read-out: LUCIFERASE INFECTION ASSAY - IC50): 1.45 µM |
| CCN(CC)c1ccc(Nc2nc(-c3c(C)nc4ncccn34)cs2)cc1 | 6.56 | IC50 (HEPG2TOX_HILL_SLOPE 1.79, HEPG2TOX_R_SQUARED 0.957, PBLUC_HILL_SLOPE 3.27, PBLUC_R_SQUARED 0.301, read-out: LUCIFERASE INFECTION ASSAY - IC50): 3.35 µM |
